The source of these data is US20220177515A1, “METHOD FOR MODIFYING AMINO GROUP IN MOLECULE WITH THE ZOLINIUM AND USE THEREOF” (priority 2019, published 2022).

The test system of data set [1] is Hepatocarcinoma SMMC-7721 cells. Description: Cell proliferation inhibition assay (SRB method), SMMC-7721. The data set is classed as cell-based. To be noted: for IC50: SMMC-7721, 72 hours, SRB. The protocol:
(§1) Hepatocarcinoma BEL-7402 and SMMC-7721 cells were purchased from American Standard Bacterial Bank. All cell lines were stored in a cell culture medium containing 10% fetal bovine serum in a humid environment at 37° C. and 5% CO2. The two kinds of hepatocarcinoma cells were seeded in 96-well plates overnight. The assay were performed using a final highest concentration of 100 μM, 10-fold dilution, 6 gradients and 3 duplicates, and the cells were treated for 72 hours and three independent repeated experiments were carried out. The antiproliferative activity of the compound was determined by Sulforhodamine B (SRB) method. Then the absorbance OD value at a wavelength of 510 nm was measured on a Synergy H4 Hybrid reader (BioTek, Winooski, Vt., USA) by using Gen5.0 software (BioTek). The IC50 value was calculated using the software Prism 5 (GraphPad Software, Inc).
(In general: The SRB assay estimates cell density from bound dye.)

The subject of data set [2] is Hepatocarcinoma BEL-7402 cells. Kind of data set: Cell proliferation inhibition assay (SRB method), BEL-7402. The format is cell-based. To be noted: for IC50: BEL-7402, 72 hours, SRB. The protocol:
as §1

For another data set, the target named is μ-opioid receptor (MOR) (Homo sapiens, UniProt P35372). Description: [35S]GTPγS binding assay, MOR agonist activity. The data set is classed as biochemical. To be noted: for Emax: [35S]GTPγS binding rate. How it is done: Protein concentration was detected using BCA protein concentration assay kit: 10 μl of protein standard was prepared into a final concentration of 0.5 mg/ml. 0, 1, 2, 4, 8, 12, 16, or 20 μl of BSA standard protein was taken and added together with the sample to be tested to a 96-well plate, and supplemented to 20 μl with the solution for diluting the standard. 200 μl of BCA working solution was added to each well and placed at 37° C. for 30 min. The absorbance at A562 wavelength was measured with a microplate reader. The protein concentration was calculated based on the standard curve.
The prepared membrane receptor was diluted to the required concentration with the reaction buffer (R.B), and the samples were added as shown in Table 2 (unit: μl).
The reaction tube was incubated in a 27° C. water bath for 1 hour, and the mixture was filtered through a glass fiber membrane under reduced pressure and liquid scintillation counting was performed. The following equation was used to perform calculation:
[^35S] GTPγS binding rate=100×(cpmsample−cpmnon-specific)/(cpmbasal−cpmnon-specific)

The next data set addresses tankyrase (TNKS). To be noted: read-out: IC50 (TNKS inhibitor); cited from earlier work.
Data set [3] is classed as in vitro ADME. The following applies: 1 mg/ml in pig liver slurry, 0.25-3 hour, FIG. 3. The protocol:
5 g of a fresh pig liver from which adhering fat and connective tissue were removed, was washed with a cold saline, absorbed water on its surface with a filter paper and weighed. The liver was cut into pieces with a scissors, added with an appropriate amount of a PBS buffer, and homogenized with a homogenizer at a frequency of 30/s for 4 minutes to prepare 20 ml of a slurry. The compound 2-40 to be tested (at a final concentration of 1 mg/ml with a co-solvent (1% DMSO)) was added into the 20 ml pig liver slurry, stirred thoroughly and left stand. 1 ml of samples were withdrawn twice at six time points: 0.25 hour, 0.5 hour, 1 hour, 1.5 hour, 2 hour and 3 hour, respectively, and added with methanol (500 μl) to stop the reaction. After centrifugation (1000 rpm, 6 minutes), the supernatant was separated and extracted twice with 750 μl of water-saturated n-butanol. The extracted samples were then analyzed by HPLC. The HPLC analysis was performed on an Agilent Zorbax SB-C18 column (5 μm, 4.6×250 mm) with a flow rate of […] at 25° C. The gradient condition used was from 50% A (MeOH) and 50% B (H2O+0.2% CH3COOH) to 95% A and 5% B in 16 minutes. The absorbance values at 210, 254 and 280 nm were collected using a UV-DAD detector.

Structures are written as SMILES. Starred links: 1 amine or outer side, 2 acyl side, 3 side chain; linkers in the order of their positions; H or OH if unused. Non-standard residues stand in square brackets, D forms with d. Residues, ends and D or L forms follow the SMILES beside them. X1 = O=C([C@H](Cc1ccc(O)cc1)N(c1ccc2ccccc2n1)[*:1])[*:2]

Chain of μ-opioid receptor (MOR) (P35372 whole entry): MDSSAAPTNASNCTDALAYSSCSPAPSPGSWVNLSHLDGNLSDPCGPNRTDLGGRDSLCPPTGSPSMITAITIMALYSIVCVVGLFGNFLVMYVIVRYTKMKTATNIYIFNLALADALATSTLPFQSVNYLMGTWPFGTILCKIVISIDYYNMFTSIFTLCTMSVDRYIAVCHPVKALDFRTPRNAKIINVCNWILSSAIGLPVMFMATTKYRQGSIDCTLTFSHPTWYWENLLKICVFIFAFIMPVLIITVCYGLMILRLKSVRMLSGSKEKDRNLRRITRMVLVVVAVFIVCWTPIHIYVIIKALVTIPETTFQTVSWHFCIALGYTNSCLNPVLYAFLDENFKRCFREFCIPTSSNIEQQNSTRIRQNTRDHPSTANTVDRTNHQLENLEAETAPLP

Turning to `COC(=O)[C@H](CC(C)C)NC(=O)[C@H](CO)NC(=O)[C@@H](N)Cc1ccc(O)cc1` [YSL-M, tyroserleucide methyl ester, reference compound] (H-Tyr-Ser-Leu-OMe; N-terminus assumed), the concentration for half-maximal inhibition (IC50) in data set [1] and in data set [2] was over 100 µM in each case.
For the molecule `C[C@@H](NC(=O)[C@@H](N)Cc1ccc(O)cc1)C(=O)N[C@@H](Cc1ccccc1)C(=O)NCC(=O)N[C@@H](Cc1ccc(O)cc1)C(=O)N1CCC[C@H]1C(=O)N[C@@H](CO)C(N)=O` [derorphin, reference compound], the Emax (in general, the size of the effect at its maximum, as opposed to the concentration needed) on μ-opioid receptor (MOR) (mean ± sem) came out at 219 ± 7.1%.
For `COC(=O)[C@H](CC(C)C)NC(=O)[C@H](CO)NC(=O)[C@H](Cc1ccc(O)cc1)Nc1ccc2ccccc2n1` [Compound 2-39], the “cytotoxicity compared with unmodified drugs” value in data set [1] (SMMC-7721) and in data set [2] (BEL-7402) was “better cytotoxicities than the unmodified drugs” throughout. The results for the IC50 in data set [1] and in data set [2] were 63.3 ± 6.35 µM and 52.6 ± 2.47 µM, respectively.
Regarding `Cc1cc(=O)[nH]c2cc(-c3ccccc3F)ccc12` [7-(2-fluorophenyl)-4-methylquinoline-2(1H)-one], the half-maximal inhibitory concentration (IC50) (in general, the concentration that inhibits the measured activity by half) on tankyrase (TNKS) was 0.052 µM.
Regarding `C[C@H](NC(=O)[C@H](Cc1ccc(O)cc1)Nc1ccc2ccccc2n1)C(=O)N[C@H](Cc1ccccc1)C(=O)NCC(=O)N[C@H](Cc1ccc(O)cc1)C(=O)N1CCC[C@H]1C(=O)N[C@@H](CO)C(N)=O` [Compound 2-38] (H-[X1]A[dF]G[dY]PS-NH2), the “MOR agonist activity compared with derorphin” value at μ-opioid receptor (MOR) was “activity comparable to that of derorphin”. Further, on μ-opioid receptor (MOR) (mean ± sem), it took 0.224 ± 0.0251 µM to reach a half-maximal effect (EC50) and the Emax was determined as 203 ± 5.1%.
For `CC(C)C[C@H](NC(=O)[C@H](CO)NC(=O)[C@@H](N)Cc1ccc(O)cc1)C(=O)O` [YSL, Tyroserleutide, reference compound] (H-Tyr-Ser-Leu-OH; N-terminus and C-terminus assumed), the IC50 in data set [1] and in data set [2] was over 100 µM throughout.
With `C=C(/C=C\C(=C)NC(=O)[C@H](CCCNC(N)=O)NC(=O)[C@@H](Nc1cc(C)c2ccc(-c3ccccc3F)cc2n1)C(C)C)CO` [Compound 2-40], in data set [3], the “metabolic stability in liver tissue” value was “good metabolic stability”.
